Laboratory results from patent US12252524B2, “GIP/GLP1 co-agonist compounds” (Eli Lilly and Company, priority 2018, dated 2025).
Numbered stars: 1 amine (or outer) side, 2 acyl side, 3 side chain; on linkers, the order of the positions; unused ones are H or OH. Square brackets hold non-standard residues; d marks the D form. Side chains are listed from the residue outwards. Peptide text beside a SMILES is read from it. * marks the point of attachment. C20 diacid = O=C(O)CCCCCCCCCCCCCCCCCCC(=O)*; C18 diacid = O=C(O)CCCCCCCCCCCCCCCCC(=O)*; γGlu = O=C(O)[C@H](CCC(=O)[*:2])N[*:1]; αMeL = CC(C)C[C@](C)(N)C(=O)O; AEEA = NCCOCCOCC(=O)O; Aib = CC(C)(N)C(=O)O

Tests used:
[1] = molecular target: T1, gastric inhibitory peptide receptor (GIPR) (Homo sapiens, UniProt P48546); assay: cAMP pharmacological functional assay in presence of casein, hGIPR; format: cell-based; conditions: HEK293 cells expressing hGIPR, 0.1% Casein, geometric mean; read-out: hGIPR cAMP Rel EC50 nM (SEM, n)
T1 sequence (P48546 22-466): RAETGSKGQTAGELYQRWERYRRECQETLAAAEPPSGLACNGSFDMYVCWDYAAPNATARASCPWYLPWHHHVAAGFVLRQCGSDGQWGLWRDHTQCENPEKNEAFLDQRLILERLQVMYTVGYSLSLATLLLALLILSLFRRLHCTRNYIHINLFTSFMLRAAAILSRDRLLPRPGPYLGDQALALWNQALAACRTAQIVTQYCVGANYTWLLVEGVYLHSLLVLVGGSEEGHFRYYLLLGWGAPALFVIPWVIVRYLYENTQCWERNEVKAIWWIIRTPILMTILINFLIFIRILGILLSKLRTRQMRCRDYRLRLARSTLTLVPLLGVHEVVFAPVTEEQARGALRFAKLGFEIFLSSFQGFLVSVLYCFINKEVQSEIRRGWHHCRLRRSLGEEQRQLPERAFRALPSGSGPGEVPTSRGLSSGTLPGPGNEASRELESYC

human Gcg receptor = molecular target: T2, human Gcg receptor (Homo sapiens, UniProt P47871); assay: [125I]-Glucagon binding (SPA), human Gcg receptor; conditions: read-out: hGLcgR Ki, nM (SEM, n)
T2 construct: expressed in transfected cells; crude membranes
T2 sequence (P47871 26-477): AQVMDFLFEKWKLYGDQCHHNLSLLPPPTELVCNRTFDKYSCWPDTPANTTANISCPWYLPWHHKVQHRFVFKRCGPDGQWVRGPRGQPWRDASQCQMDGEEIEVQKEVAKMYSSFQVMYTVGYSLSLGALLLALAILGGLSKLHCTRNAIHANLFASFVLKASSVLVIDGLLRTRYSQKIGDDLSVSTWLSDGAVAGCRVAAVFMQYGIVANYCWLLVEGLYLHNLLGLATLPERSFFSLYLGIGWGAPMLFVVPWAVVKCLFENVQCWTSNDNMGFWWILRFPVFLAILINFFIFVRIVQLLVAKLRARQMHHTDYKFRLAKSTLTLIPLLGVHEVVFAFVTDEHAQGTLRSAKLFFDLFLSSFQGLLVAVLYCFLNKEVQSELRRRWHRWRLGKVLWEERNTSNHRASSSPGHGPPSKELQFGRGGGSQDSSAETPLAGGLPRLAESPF
How it was run: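 Cell pellets were lysed in hypotonic Tris buffer, pH 7.5, homogenized, and spun at low then high speed to give crude membranes. Ki was derived from the fitted IC50.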

human GLP-1R [2] = molecular target: T3, human GLP-1R (Homo sapiens, UniProt P43220); assay: GLP-1R HEK293 cell membrane [35S]GTPγS binding assay; format: biochemical; design: expressed in transfected cells; host or cells: HEK293 cells expressing human GLP-1R; membranes; conditions: HEK293 cell membranes expressing human GLP-1R, [35S]GTPγS binding; read-out: hGLP1R GTPgS Rel EC50 nM (SEM, n)
T3 sequence (P43220 24-463): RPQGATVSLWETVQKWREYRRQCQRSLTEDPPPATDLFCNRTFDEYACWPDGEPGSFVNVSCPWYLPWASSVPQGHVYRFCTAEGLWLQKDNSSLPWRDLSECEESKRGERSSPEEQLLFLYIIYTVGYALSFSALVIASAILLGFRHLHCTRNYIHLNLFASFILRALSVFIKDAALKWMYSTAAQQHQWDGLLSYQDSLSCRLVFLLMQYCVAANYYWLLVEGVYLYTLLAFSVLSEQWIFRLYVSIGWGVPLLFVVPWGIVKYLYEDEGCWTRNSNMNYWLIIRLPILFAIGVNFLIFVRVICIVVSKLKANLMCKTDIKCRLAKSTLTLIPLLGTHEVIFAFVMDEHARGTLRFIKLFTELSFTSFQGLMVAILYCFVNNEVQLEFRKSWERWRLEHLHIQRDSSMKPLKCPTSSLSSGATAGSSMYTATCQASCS
How it was run: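 Agonist-driven Gαs activation read as [35S]GTPγS ([…]) binding to receptor-expressing HEK293 membranes, 30 min at room temperature, pH 7.4. Detection by anti-Gαs immunocapture on scintillation beads; EC50 derived from four-parameter logistic concentration-response fit.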

[3] = molecular target: human GLP-1 receptor (GLP-1R) (Homo sapiens, UniProt P43220); assay: cAMP pharmacological functional assay in presence of casein, hGLP-1R; format: cell-based; conditions: HEK293 cells expressing hGLP-1R, 0.1% Casein, geometric mean; read-out: hGLP1R cAMP Rel EC50 nM (SEM, n)
human GLP-1 receptor (GLP-1R), sequence (P43220 24-463): as above

human GLP-1R [4] = molecular target: T3, human GLP-1R; assay: [125I]-GLP-1 binding (SPA), human GLP-1 receptor; design: expressed in transfected cells; crude membranes; conditions: read-out: hGLP1R Ki, (nM) (SEM, n)
How it was run: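 Crude-membrane binding assay; one membrane prep included 1 mM MgCl2 and 25 units/ml DNAse I during lysis. Assay buffer at pH 7.4 contains 0.1% (w/v) bacitracin and 0.003% (w/v) TWEEN-20. Ki is reported as geometric mean.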

human GIP receptor = molecular target: T4, human GIP receptor (Homo sapiens, UniProt P48546); assay: [125I]-GIP binding (SPA), human GIP receptor; conditions: read-out: hGIPR Ki, nM (SEM, n)
T4 construct: expressed in transfected cells; crude membranes
T4 sequence (P48546 22-466): T1 sequence (P48546 22-466)

human GLP-1R [5] = molecular target: T3, human GLP-1R; assay: GLP-1R CHO cell β-arrestin recruitment assay; format: cell-based; design: host or cells: CHO-K1 PathHunter cells, assay-ready frozen; conditions: for EC50: CHO-K1 cells; for hGLP1R B-Arrestin2 % Top: normalized to GLP-1 maximum control
How it was run: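 Peptide-induced β-arrestin-2 recruitment measured by enzyme-fragment complementation luminescence after 90 min at 37 °C plus 60 min detection at RT.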

[6] = PathHunter β-arrestin-2 recruitment, 0.1% casein, read-out: hGLP1R B-Arrestin2 Rel EC50 uM (SEM, n)
[7] = 0.1% w/v hydrolyzed Casein, read-out: hGLP1R B-Arrestin2 Rel EC50

SMILES	EC50 [1] [nM]	Ki (human Gcg receptor) [nM]	EC50 (human GLP-1R [2]) [nM]	EC50 [3] [nM]	Ki (human GLP-1R [4]) [nM]	Ki (human GIP receptor) [nM]	EC50 (human GLP-1R [5]; [6]) [µM]	hGLP1R B-Arrestin2 % Top (human GLP-1R [5]) [%]	EC50 (human GLP-1R [5]; [7]) [µM]
CC[C@H](C)[C@H](NC(=O)[C@H](CC(C)C)NC(=O)[C@H](Cc1ccc(O)cc1)NC(=O)[C@H](CCC(=O)O)NC(=O)[C@@H](NC(=O)[C@H](Cc1ccccc1)NC(=O)[C@H](C)NC(=O)C(C)(C)NC(=O)[C@H](CCC(N)=O)NC(=O)[C@H](C)NC(=O)[C@H](CCCCNC(=O)COCCOCCNC(=O)COCCOCCNC(=O)CC[C@H](NC(=O)CCCCCCCCCCCCCCCCC(=O)O)C(=O)O)NC(=O)[C@H](CCCCN)NC(=O)[C@H](CC(=O)O)NC(=O)[C@H](CC(C)C)NC(=O)[C@H](CC(C)C)NC(=O)[C@@H](NC(=O)[C@H](CO)NC(=O)[C@H](Cc1ccc(O)cc1)NC(=O)[C@H](CC(=O)O)NC(=O)[C@H](CO)NC(=O)[C@@H](NC(=O)[C@H](Cc1ccccc1)NC(=O)[C@@H](NC(=O)CNC(=O)[C@H](CCC(=O)O)NC(=O)C(C)(C)NC(=O)[C@@H](N)Cc1ccc(O)cc1)[C@@H](C)O)[C@@H](C)O)[C@@H](C)CC)[C@@H](C)CC)C(=O)N[C@@H](CCC(=O)O)C(=O)NCC(=O)NCC(=O)N1CCC[C@H]1C(=O)N[C@@H](CO)C(=O)N[C@@H](CO)C(=O)NCC(N)=O [Example 266] (H-Y[Aib]EGTFTSDYSILLDKK([AEEA-AEEA-γGlu-C18 diacid])AQ[Aib]AFIEYLIEGGPSSG-NH2)	0.0442	193	0.865	0.0883	2.01	0.0666	0.016	17.1	
CC[C@H](C)[C@H](NC(=O)[C@H](CC(C)C)NC(=O)[C@H](Cc1ccc(O)cc1)NC(=O)[C@H](CCC(=O)O)NC(=O)[C@@H](NC(=O)[C@H](Cc1ccccc1)NC(=O)[C@H](C)NC(=O)C(C)(C)NC(=O)[C@H](CCC(N)=O)NC(=O)[C@H](C)NC(=O)[C@H](CCCCNC(=O)COCCOCCNC(=O)COCCOCCNC(=O)CC[C@H](NC(=O)CCCCCCCCCCCCCCCCC(=O)O)C(=O)O)NC(=O)[C@H](CCCCN)NC(=O)[C@H](CC(=O)O)NC(=O)[C@H](CC(C)C)NC(=O)[C@H](CC(C)C)NC(=O)[C@@H](NC(=O)[C@H](CO)NC(=O)[C@H](Cc1ccc(O)cc1)NC(=O)[C@H](CC(=O)O)NC(=O)[C@H](CO)NC(=O)[C@@H](NC(=O)[C@H](Cc1ccccc1)NC(=O)[C@@H](NC(=O)CNC(=O)[C@H](CCC(=O)O)NC(=O)C(C)(C)NC(=O)[C@@H](N)Cc1ccc(O)cc1)[C@@H](C)O)[C@@H](C)O)[C@@H](C)CC)[C@@H](C)CC)C(=O)N[C@@H](CCC(=O)O)C(=O)NCC(=O)NCC(N)=O [Example 267] (H-Y[Aib]EGTFTSDYSILLDKK([AEEA-AEEA-γGlu-C18 diacid])AQ[Aib]AFIEYLIEGG-NH2)	0.108	349	0.867	0.054	1.57	0.0628	0.00901	16.5	
CC[C@H](C)[C@H](NC(=O)[C@H](CC(C)C)NC(=O)[C@H](Cc1ccc(O)cc1)NC(=O)[C@H](CCC(=O)O)NC(=O)[C@@H](NC(=O)[C@H](Cc1ccccc1)NC(=O)[C@H](C)NC(=O)C(C)(C)NC(=O)[C@H](CCC(N)=O)NC(=O)[C@H](C)NC(=O)[C@H](CCCCNC(=O)COCCOCCNC(=O)COCCOCCNC(=O)CC[C@H](NC(=O)CCCCCCCCCCCCCCCCC(=O)O)C(=O)O)NC(=O)[C@H](CCCCN)NC(=O)[C@H](CC(=O)O)NC(=O)[C@H](CC(C)C)NC(=O)[C@H](CC(C)C)NC(=O)[C@@H](NC(=O)[C@H](CO)NC(=O)[C@H](Cc1ccc(O)cc1)NC(=O)[C@H](CC(=O)O)NC(=O)[C@H](CO)NC(=O)[C@@H](NC(=O)[C@H](Cc1ccccc1)NC(=O)[C@@H](NC(=O)CNC(=O)[C@H](CCC(=O)O)NC(=O)C(C)(C)NC(=O)[C@@H](N)Cc1ccc(O)cc1)[C@@H](C)O)[C@@H](C)O)[C@@H](C)CC)[C@@H](C)CC)C(=O)N[C@@H](C)C(=O)NCC(=O)NCC(=O)N1CCC[C@H]1C(=O)N[C@@H](CO)C(=O)N[C@@H](CO)C(=O)NCC(N)=O [Example 272] (H-Y[Aib]EGTFTSDYSILLDKK([AEEA-AEEA-γGlu-C18 diacid])AQ[Aib]AFIEYLIAGGPSSG-NH2)	0.0464	550	0.651	0.0435	1.22	0.0353	> 12		> 12
CC[C@H](C)[C@H](NC(=O)[C@H](CC(C)C)NC(=O)[C@H](Cc1ccc(O)cc1)NC(=O)[C@H](CCC(=O)O)NC(=O)[C@@H](NC(=O)[C@H](Cc1ccccc1)NC(=O)[C@H](CCC(=O)O)NC(=O)C(C)(C)NC(=O)[C@H](CCC(N)=O)NC(=O)[C@H](C)NC(=O)[C@H](CCCCNC(=O)COCCOCCNC(=O)COCCOCCNC(=O)CC[C@H](NC(=O)CCCCCCCCCCCCCCCCCCC(=O)O)C(=O)O)NC(=O)[C@H](CCCCN)NC(=O)[C@H](CC(=O)O)NC(=O)[C@H](CC(C)C)NC(=O)[C@](C)(CC(C)C)NC(=O)[C@@H](NC(=O)[C@H](CO)NC(=O)[C@H](Cc1ccc(O)cc1)NC(=O)[C@H](CC(=O)O)NC(=O)[C@H](CO)NC(=O)[C@@H](NC(=O)[C@H](Cc1ccccc1)NC(=O)[C@@H](NC(=O)CNC(=O)[C@H](CCC(=O)O)NC(=O)C(C)(C)NC(=O)[C@H](N)Cc1ccc(O)cc1)[C@@H](C)O)[C@@H](C)O)[C@@H](C)CC)[C@@H](C)CC)C(=O)N[C@@H](C)C(=O)NCC(=O)NCC(=O)N1CCC[C@H]1C(=O)N[C@@H](CO)C(=O)N[C@@H](CO)C(=O)NCC(=O)N[C@@H](C)C(=O)N1CCC[C@H]1C(=O)N1CCC[C@H]1C(=O)N1CCC[C@H]1C(=O)N[C@@H](CO)C(N)=O [Example 290] (H-[dY][Aib]EGTFTSDYSI[αMeL]LDKK([AEEA-AEEA-γGlu-C20 diacid])AQ[Aib]EFIEYLIAGGPSSGAPPPS-NH2)	0.0629	308	0.466	0.179	2.44	0.0617	0.0238	20.0	
CC[C@H](C)[C@H](NC(=O)[C@H](CC(C)C)NC(=O)[C@H](Cc1ccc(O)cc1)NC(=O)[C@H](CCC(=O)O)NC(=O)[C@@H](NC(=O)[C@H](Cc1ccccc1)NC(=O)[C@H](C)NC(=O)C(C)(C)NC(=O)[C@H](CCC(N)=O)NC(=O)[C@H](C)NC(=O)[C@H](CCCCNC(=O)COCCOCCNC(=O)COCCOCCNC(=O)CC[C@H](NC(=O)CCCCCCCCCCCCCCCCCCC(=O)O)C(=O)O)NC(=O)[C@H](CCC(=O)O)NC(=O)[C@H](CC(=O)O)NC(=O)[C@H](CC(C)C)NC(=O)[C@H](CC(C)C)NC(=O)[C@@H](NC(=O)[C@H](CO)NC(=O)[C@H](Cc1ccc(O)cc1)NC(=O)[C@H](CC(=O)O)NC(=O)[C@H](CO)NC(=O)[C@@H](NC(=O)[C@H](Cc1ccccc1)NC(=O)[C@@H](NC(=O)CNC(=O)[C@H](CCC(=O)O)NC(=O)C(C)(C)NC(=O)[C@@H](N)Cc1ccc(O)cc1)[C@@H](C)O)[C@@H](C)O)[C@@H](C)CC)[C@@H](C)CC)C(=O)N[C@@H](C)C(=O)NCC(=O)NCC(=O)N1CCC[C@H]1C(=O)N[C@@H](CO)C(=O)N[C@@H](CO)C(=O)NCC(=O)N[C@@H](C)C(=O)N1CCC[C@H]1C(=O)N1CCC[C@H]1C(=O)N1CCC[C@H]1C(=O)N[C@@H](CO)C(N)=O [Example 330] (H-Y[Aib]EGTFTSDYSILLDEK([AEEA-AEEA-γGlu-C20 diacid])AQ[Aib]AFIEYLIAGGPSSGAPPPS-NH2)	0.0919	> 1050	1.05	0.199		0.114	> 10.9		> 10.9
